This is an account of results in publication PMC8611036, “An integrated method for optimized identification of effective natural inhibitors against SARS-CoV-2 3CLpro” (Scientific Reports, 2021).

Structures are written as SMILES. Residues, ends and D or L forms follow the SMILES beside them.

The target of one assay is SARS-CoV-2 3CLpro (Severe acute respiratory syndrome coronavirus 2, UniProt P0DTD1). As to conditions: SARS-CoV pIC50 multiplied by similarity index (SI), training set compounds.
The test system of assay [1] is SARS-CoV 3CLpro. To be noted: SARS-CoV 3CLpro inhibitors (training set), ref: per compound, cited from earlier work; for pIC50: from literature IC50; for IC50: literature values.
Assay [2] has as its system SARS-CoV 3CLpro. The class given is biochemical. To be noted: activity class by pIC50 threshold 6.

As usually defined, the pIC50 is the IC50 on a negative log10 scale, so that one unit is a factor of ten. The IC50 is the concentration needed to halve the response being measured. Turning to `CC1=C(C(=O)OCCc2ccccc2)C(c2ccccc2[N+](=O)[O-])C2=C(CCCC2=O)N1` (stereo not shown) [CMP102], on SARS-CoV-2 3CLpro, the “SI*pIC50” value is listed as 5.754. For the same compound, in the assay on SARS-CoV 3CLpro [1], the pIC50 is recorded as 5.602 and the half-inhibitory concentration (IC50) was 2.5 µM. In the assay with SARS-CoV 3CLpro [2], the “Inact.(<6)/Act.(>=6)” value is recorded as “Inact. (Inact.(<6))”.

Consider `O=C1C(=O)N(Cc2ccccc2)c2ccc(S(=O)(=O)N3CCCCC3)cc21` [CMP176], for which, on SARS-CoV-2 3CLpro, the “SI*pIC50” value came out at 5.006. Further, in the assay with SARS-CoV 3CLpro [1], the pIC50 was 4.854 and the IC50 was 14 µM. In addition, the “Inact.(<6)/Act.(>=6)” value in the assay with SARS-CoV 3CLpro [2] is “Inact. (Inact.(<6))”.

On to `CC(=O)n1nc(SSc2ccccc2[N+](=O)[O-])nc1C` [CMP120], for which the “SI*pIC50” value on SARS-CoV-2 3CLpro came to 5.656. Also, in the assay on SARS-CoV 3CLpro [1], the pIC50 is given as 5.504 and the IC50 was 3.13 µM. Besides, the “Inact.(<6)/Act.(>=6)” value with SARS-CoV 3CLpro [2] was “Inact. (Inact.(<6))”.

Take `O=C1C=CC(=O)c2cn(Cc3ccccc3)cc21` [CMP111]: the “SI*pIC50” value at SARS-CoV-2 3CLpro was 5.307. In the assay on SARS-CoV 3CLpro [1], the pIC50 is 5.1549 and the IC50 was 7 µM. Further, the “Inact.(<6)/Act.(>=6)” value with SARS-CoV 3CLpro [2] is “Inact. (Inact.(<6))”.

Turning to `Cc1coc2c1C(=O)C(=O)c1c-2ccc2c1CCCC2(C)CO` (stereo not shown) [CMP131], the “SI*pIC50” value at SARS-CoV-2 3CLpro came out at 5.122. For the same compound, in the assay on SARS-CoV 3CLpro [1], the pIC50 is 4.971 and the IC50 was 10.7 µM. In the assay with SARS-CoV 3CLpro [2], the “Inact.(<6)/Act.(>=6)” value is reported as “Inact. (Inact.(<6))”.

With `CCOC(=O)/C=C/[C@H](C[C@@H]1CCNC1=O)NC(=O)[C@H](CC=C(C)C)CC(=O)[C@@H](NC(=O)c1cc(C)on1)C(C)C` [CMP160], the “SI*pIC50” value at SARS-CoV-2 3CLpro came to 4.307. In the assay with SARS-CoV 3CLpro [1], the pIC50 is given as 4.1549 and the IC50 is 70 µM. For the same compound, the “Inact.(<6)/Act.(>=6)” value in the assay on SARS-CoV 3CLpro [2] is “Inact. (Inact.(<6))”.

Take `Cc1coc2c1C(=O)C(=O)c1c-2ccc2c1CCCC2(C)C` [CMP130]: at SARS-CoV-2 3CLpro, the “SI*pIC50” value was determined as 5.948. For the same compound, in the assay with SARS-CoV 3CLpro [1], the pIC50 is 5.796 and the IC50 was 1.6 µM. In the assay on SARS-CoV 3CLpro [2], the “Inact.(<6)/Act.(>=6)” value is listed as “Inact. (Inact.(<6))”.

For `O=C(Oc1cncc(Cl)c1)c1cc2ccccc2o1` [CMP169], at SARS-CoV-2 3CLpro, the “SI*pIC50” value is 6.921. For the same compound, in the assay with SARS-CoV 3CLpro [1], the pIC50 was 6.77 and the IC50 is 0.17 µM. In addition, the “Inact.(<6)/Act.(>=6)” value in the assay with SARS-CoV 3CLpro [2] is listed as “Act. (Act.(>=6))”.

On to `COC(=O)[C@]1(C)CCC[C@]2(C)c3ccc(C(C)C)cc3CC[C@@H]12` [CMP125], for which the “SI*pIC50” value on SARS-CoV-2 3CLpro is on record as 3.836. In the assay with SARS-CoV 3CLpro [1], the pIC50 is recorded as 3.684 and the IC50 is 207 µM. For the same compound, the “Inact.(<6)/Act.(>=6)” value with SARS-CoV 3CLpro [2] is on record as “Inact. (Inact.(<6))”.

`COc1cc(C=NNC(=O)C(=Cc2ccccc2)NC(=O)c2ccccc2)cc(OC)c1O` [CMP123]: on SARS-CoV-2 3CLpro, the “SI*pIC50” value is reported as 4.265. In the assay with SARS-CoV 3CLpro [1], the pIC50 is 4.113 and the IC50 is 77.1 µM. In the assay with SARS-CoV 3CLpro [2], the “Inact.(<6)/Act.(>=6)” value was “Inact. (Inact.(<6))”.

Regarding `O=[N+]([O-])c1ccc(S(=O)(=O)c2ccc(Cl)cc2)[n+]([O-])c1` [CMP121], at SARS-CoV-2 3CLpro, the “SI*pIC50” value came to 4.976. In addition, in the assay on SARS-CoV 3CLpro [1], the pIC50 is 4.824 and the IC50 is 15 µM. For the same compound, the “Inact.(<6)/Act.(>=6)” value with SARS-CoV 3CLpro [2] is “Inact. (Inact.(<6))”.

In the case of `O=c1c(O)c(-c2ccc(O)c(O)c2)oc2cc(O)cc(O)c12` [CMP151], the “Inact.(<6)/Act.(>=6)” value with SARS-CoV 3CLpro [2] is recorded as “Inact. (Inact.(<6))”.

In the case of `CC(C)(C)NC(=O)C(c1cccnc1)N(C(=O)c1ncco1)c1ccc(C(C)(C)C)cc1` (stereo not shown) [CMP202], the “Inact.(<6)/Act.(>=6)” value in the assay on SARS-CoV 3CLpro [2] is “Inact. (Inact.(<6))”.

For `CC1CC(C)CN(S(=O)(=O)c2ccc3c(c2)C(=O)C(=O)N3Cc2ccccc2)C1` (stereo not shown) [CMP251], the “Inact.(<6)/Act.(>=6)” value in the assay on SARS-CoV 3CLpro [2] was “Inact. (Inact.(<6))”.

For `CC(C)c1cc2c(cc1O)[C@@]1(C)CC[C@H](O)C(C)(C)[C@@H]1CC2` [CMP163], the “Inact.(<6)/Act.(>=6)” value in the assay with SARS-CoV 3CLpro [2] is recorded as “Inact. (Inact.(<6))”.

As to `CN1C(=O)C(=O)c2cc(S(=O)(=O)N3CCN(c4ccccn4)CC3)ccc21` [CMP245], the “Inact.(<6)/Act.(>=6)” value in the assay on SARS-CoV 3CLpro [2] is “Inact. (Inact.(<6))”.

For the compound `CC(=O)N[C@@H](CO)C(=O)N[C@@H](C)C(=O)N[C@H](C(=O)N[C@@H](CC(C)C)C(=O)N[C@H](C=O)Cc1ccccc1)C(C)C` [CMP215] (Ac-SAVLF-aldehyde), the “Inact.(<6)/Act.(>=6)” value with SARS-CoV 3CLpro [2] is “Inact. (Inact.(<6))”.

Turning to `C=C1CC[C@H]2[C@](C)(CO)CCC[C@]2(C)[C@H]1CC/C(C)=C\CO` [CMP209], the “Inact.(<6)/Act.(>=6)” value with SARS-CoV 3CLpro [2] is “Inact. (Inact.(<6))”.

With `O=[N+]([O-])c1cc(C(F)(F)F)ccc1S(=O)(=O)c1ccc(Cl)cc1` [CMP287], in the assay with SARS-CoV 3CLpro [2], the “Inact.(<6)/Act.(>=6)” value is reported as “Inact. (Inact.(<6))”.

`Cc1ccc(C(=O)N/C(=C\c2ccc(-c3cccc([N+](=O)[O-])c3)o2)C(=O)NCCCN(C)C)cc1` [CMP283]: the “Inact.(<6)/Act.(>=6)” value with SARS-CoV 3CLpro [2] was “Inact. (Inact.(<6))”.

As for `CCC(=O)Nc1ccc(N(Cc2ccsc2)C(=O)Cn2nnc3ccccc32)cc1` [CMP220], the “Inact.(<6)/Act.(>=6)” value with SARS-CoV 3CLpro [2] is on record as “Inact. (Inact.(<6))”.

As for `CN1CCN(S(=O)(=O)c2ccc3c(c2)C(=O)C(=O)N3)CC1` [CMP227], in the assay on SARS-CoV 3CLpro [2], the “Inact.(<6)/Act.(>=6)” value was “Inact. (Inact.(<6))”.

As for `CC(C)(C)NC(=O)C(c1cccnc1)N(C(=O)c1cccs1)c1ccc(C(C)(C)C)cc1` (stereo not shown) [CMP189], the “SI*pIC50” value at SARS-CoV-2 3CLpro came out at 4.453. The “Inact.(<6)/Act.(>=6)” value in the assay with SARS-CoV 3CLpro [2] was “Inact. (Inact.(<6))”.

Consider `COc1ccc2c(c1)CCC1C2=NN(C(C)=O)C1c1cccc(I)c1` (stereo not shown) [CMP116], for which the “Inact.(<6)/Act.(>=6)” value in the assay on SARS-CoV 3CLpro [2] was “Inact. (Inact.(<6))”.

As to `COC(=O)c1nc(SSc2ccccc2[N+](=O)[O-])[nH]c1C` [CMP269], the “Inact.(<6)/Act.(>=6)” value with SARS-CoV 3CLpro [2] is reported as “Inact. (Inact.(<6))”.

With `COC(=O)c1ccccc1SSc1nc(C(=O)OC)c(C)[nH]1` [CMP265], the “Inact.(<6)/Act.(>=6)” value in the assay on SARS-CoV 3CLpro [2] is reported as “Inact. (Inact.(<6))”.

With `O=C(Oc1cncc(Cl)c1)c1ccc(-c2ccccc2[N+](=O)[O-])o1` [CMP281], the “Inact.(<6)/Act.(>=6)” value in the assay on SARS-CoV 3CLpro [2] was “Act. (Act.(>=6))”.
